The text below walks through data of ChEMBL document CHEMBL3244348, “Antiallergic agents. Xanthone-2,7-dicarboxylic acid derivatives” (1977).

The structures appear in SMILES notation.

As a reminder, the inhibition in vivo is the drop in the measured response relative to a control, in per cent.

For this test, the system named is Rattus norvegicus. Kind of test: Antiallergic activity in homocytotropic antiovalbumin antiserum-injected Sprague-Dawley rat assessed as inhibition of passive cutaneous anaphylaxis wheal reaction at 100 mg/kg, po administered 1 hr prior to ovalbumin challenge measured 20 mins after antigen challenge. The test is classed as functional.
Take `O=C(c1ccc2oc3ccc(C(=O)N4CC5CCC(CC5)C4)cc3c(=O)c2c1)N1CC2CCC(CC2)C1`: the inhibition in vivo at 100 mg/kg is 48%. Under `O=C(c1ccc2oc3ccc(C(=O)N4CCOCC4)cc3c(=O)c2c1)N1CCOCC1` stands 42%; under `CCN(CC)C(=O)c1ccc2oc3ccc(C(=O)N(CC)CC)cc3c(=O)c2c1`, 53%. For `O=C(c1ccc2oc3ccc(C(=O)N4CCCCC4)cc3c(=O)c2c1)N1CCCCC1`, the inhibition in vivo at 100 mg/kg came out at 57%.

For the compound `CNC(=O)c1ccc2oc3ccc(C(=O)NC)cc3c(=O)c2c1`, the inhibition in vivo at 100 mg/kg amounted to 19%. Turning to `C=CCN(CC=C)C(=O)c1ccc2oc3ccc(C(=O)N(CC=C)CC=C)cc3c(=O)c2c1`, the inhibition in vivo at 100 mg/kg came out at 51%.

In the case of `COCCOCCCNC(=O)c1ccc2oc3ccc(C(=O)NCCCOCCOC)cc3c(=O)c2c1`, the inhibition in vivo at 100 mg/kg worked out at 19%.

Turning to `O=C(c1ccc2oc3ccc(C(=O)N(C4CCCCC4)C4CCCCC4)cc3c(=O)c2c1)N(C1CCCCC1)C1CCCCC1`, the inhibition in vivo at 100 mg/kg is 42%.

Consider `CCOC(=O)c1ccc2oc3ccc(C(=O)OCC)cc3c(=O)c2c1`, for which the inhibition in vivo at 100 mg/kg turned out to be 8%. Under `NC(=O)c1ccc2oc3ccc(C(N)=O)cc3c(=O)c2c1` stands 34%; under `O=C(O)c1ccc2oc3ccc(C(=O)O)cc3c(=O)c2c1`, 1%. Under `CN(C)C(=O)c1ccc2oc3ccc(C(=O)N(C)C)cc3c(=O)c2c1` stands 69%; under `CCCNC(=O)c1ccc2oc3ccc(C(=O)NCCC)cc3c(=O)c2c1`, 19%.
